Measurements reported in patent publication US20230098403A1, “MAGNETIC RESONANCE IMAGING CONTRAST AGENT, PREPARATION METHOD AND USE THEREOF” (GUANGZHOU PINGLAN MEDICAL TECHNOLOGY CO., LTD., priority 2020, published 2023).

Legend:
[1] = Relaxivity measurement (T1 and T2 relaxation, MRI Contrast Agent Analyzer); format: physicochemical; conditions: 0.5 T, 32° C.
Experimental: The method for measuring the relaxivity comprises the following steps: preparing contrast agent solutions in a gradient concentration (0.054, 0.109, 0.224, 0.451, 0.906 mM, in Hepes buffer, pH=7.4), and measuring the contrast agent samples at different concentrations by Niumag PQ001 MRI Contrast Agent Analyzer (0.5±0.08T, main frequency of instrument: 21.3 MHz; at 32° C.) to respectively obtain their T1 and T2 relaxation time, and then performing a linear fitting between the relaxation rate, Ri (Ri=1/Ti, i=1, 2) and the contrast agent concentrations to obtain a slope, i.e., relaxivity (ri, i=1, 2). Relaxivity reflects the ability of magnetic resonance imaging contrast agent to alter the relaxation time of water proton and is an important parameter to evaluate the quality of contrast agent. Relaxivity (ri, i=1, 2) is defined as the alteration in the relaxation rate of water proton (1/Ti, i=1, 2) by unit concentration of MRI Contrast agent (mmol/L).

[2] = comparison value for the commercial agent; cited from earlier work

O=C([O-])CN(CP(=O)([O-])O)C1CCCCC1N(CC(=O)[O-])CP(=O)([O-])O.[Fe+3].[Na+] (centres unmarked) [Example 4]
relaxation efficiency r1 [1]: 1.80 mmol⁻¹ s⁻¹

CNC[C@H](O)[C@@H](O)[C@H](O)[C@H](O)CO.CNC[C@H](O)[C@@H](O)[C@H](O)[C@H](O)CO.O=C([O-])CN(CCN(CC(=O)[O-])CC(=O)O)CCN(CC(=O)[O-])CC(=O)O.[Gd+3] [Magnvist®]
relaxivity r1 [2]: 3.4 mmol⁻¹ s⁻¹
